Measured values taken from patent publication US20200000742A1, “COMBINATION” (priority 2016, published 2020).

Tested on: log phase NDM-1 Klebsiella Pneumoniae (NCTC13443)
Experiment: Time-kill method over 24 hours (CFU counts)
Format: cell-based
Details: FIG. 1
Experimental: As described hereinabove, time-kill methods are another accepted test for ascertaining the presence or absence of synergy, and involve comparing the dynamic effect of a drug combination with each drug alone when assessing the effect on bacterial log or stationary-growth over time.
• 1. Bacterial strain used: NCTC13443 strain of Klebsiella Pneumoniae • 2. Growth of bacteria: Log phase growth of NCTC13443 was carried out according to known methods in the art, e.g. SOP R-005-00 Log Phase Growth of Bacteria. • 3. Compound preparation: dichlorophen and meropenem trihydrate were both obtained from commercial sources (e.g. Sigma-Aldrich® UK). • 4. The overnight culture was diluted with nutrient broth (Oxoid) to 10^7 CFU/ml and 280 μl and 290 μl of the culture was added to each combination well and drug respectively, to make the final concentration of 300 μl. • 5. Incubation of the compounds with the bacterial suspension was carried out for 24 hours. At 0, 2, 4, 7 and 24 hours, CFU counts were performed to measure the kill effects of the drug combination.

Compound | effect against log phase NDM-1 Klebsiella Pneumoniae (time-kill) (used alone at 512 mg/L) | effect against log phase NDM-1 Klebsiella Pneumoniae (time-kill) (used alone at 64 mg/L)
C[C@@H](O)[C@H]1C(=O)N2C(C(=O)O)=C(S[C@@H]3CN[C@H](C(=O)N(C)C)C3)[C@H](C)[C@H]12 [meropenem trihydrate] | little or no effect | 
Oc1ccc(Cl)cc1Cc1cc(Cl)ccc1O [dichlorophen, 4-chloro-2-[(5-chloro-2-hydroxyphenyl)methyl] phenol] |  | little or no effect
